Laboratory results: patent US20250188162A1, “INHIBITOR OF INTERLEUKIN-1 RECEPTOR TYPE 1 FOR USE IN THE TREATMENT OF CANCER” (Buzzard Pharmaceuticals AB, priority 2022, published 2025)

Experiments:
NF-κB = NF-κB reporter response of pNGL RAW264.7 macrophages to tumor-conditioned media with bortezomib pre-treatment; assay type: cell-based, murine; details: pre-treatment 1 μg/mL (3 μM) for 1 hour
Protocol: FIG. 3. Tumor-secreted factors drive IKKβ activation, differentiation, and IL-1β secretion in macrophages. (A) Color-coded cancer cells with Kras mutation status. (B-E) Bioluminescent images with pseudocolor scale (B, E), immunoblots (C), and data summaries (D, E) from exposure of RAW264.7 macrophages stably expressing pNGL (B-D) and murine bone marrow derived macrophages (BMDM) obtained from NGL mice after one-week 100 ng/ml M-CSF exposure (E) to cell-free tumor-conditioned media or DMEM (white boxes) with or without bortezomib pre-treatment (1 μg/mL˜3 µM for 1 hour). (D, E) n=5/group; P, probability, one or two-way ANOVA; **** and ####, P<0.0001 compared with other groups or saline-treated cells, respectively, Bonferroni post-tests. (F) Flow cytometry-assessed differentiation marker expression of murine bone marrow cells before (day 0) and after (day 7) one-week M-CSF exposure. (G) Microarray strategy and top-five differentially expressed genes (ΔGE) of murine BMDM compared with cancer cells (ΔGE1) and of tumor-conditioned BMDM compared with naïve BMDM (ΔGE2). n=5/group; P, probability, one-way ANOVA. (H) Bioluminescent images and data summary of NGL, NGL; Tnf−/−, and NGL;Il1b−/− mice 14 days post-pleural injection of LLC cells. n=13/group; P, probability, one-way ANOVA; ** and ***, P<0.01 and P<0.001, respectively, compared with NGL mice, Bonferroni post-tests. […]

incident lung cancer = details: exploratory analysis of CANTOS; cited from earlier work
[1] = test system: non-small cell lung cancer (NSCLC); details: second/third-line with docetaxel, irrespective of histologic subtype and driver mutation; cited from earlier work

Row | Compound | NF-κB response to KrasMUT tumor-conditioned media (NF-κB) | effect against incident lung cancer (incident lung cancer) | trial outcome [1]
1 | CC(C)C[C@H](NC(=O)[C@H](Cc1ccccc1)NC(=O)c1cnccn1)B(O)O [bortezomib] | attenuated | – | –
2 | canakinumab: anti-IL-1β neutralizing monoclonal antibody | – | strong protective effects against incident lung cancer | negative
